The text below walks through data of ChEMBL document CHEMBL6103567, “A novel pyridine-2-one AMPK inhibitor: Discovery, mechanism, and in vivo evaluation in a hypoxic pulmonary arterial hypertension rat model” (Eur J Med Chem, 2025).

Assay [1] in a line: Antiproliferative activity against human PASMC cells assessed as cell viability incubated for 48 hrs under hypoxia condition by CCK-8 assay. Type of assay: toxicity, cell-based.
Assay [2] can be described thus: Induction of apoptosis in hypoxia-induced human PASMC cells assessed as viable cells at 5 uM incubated for 12 hrs by Annexin V/FITC staining based flow cytometry analysis (reference value: 88.26%). To be noted: read-out: Activity. Type of assay: functional. For orientation: In flow cytometry, cells or beads pass a laser one at a time.
Assay [3] can be described thus: Induction of apoptosis in hypoxia-induced human PASMC cells assessed as early apoptotic cells at 5 uM incubated for 12 hrs by Annexin V/FITC staining based flow cytometry analysis (reference value: 10.17%). Type of assay: functional.
Assay [4] can be described thus: Induction of apoptosis in hypoxia-induced human PASMC cells assessed as late apoptotic cells at 5 uM incubated for 12 hrs by Annexin V/FITC staining based flow cytometry analysis (reference value: 0.88%). Type of assay: functional.
Assay [5] in a line: Induction of apoptosis in hypoxia-induced human PASMC cells assessed as necrotic cells at 5 uM incubated for 12 hrs by Annexin V/FITC staining based flow cytometry analysis (reference value: 0.68%). In kind it is functional.

One may read the IC50 as the point on the concentration scale where inhibition reaches its midpoint. For the molecule `c1cc(-c2cnn3cc(-c4ccc(OCCN5CCCCC5)cc4)cnc23)ccn1` [DORSOMORPHIN], in assay [1], the half-maximal inhibitory concentration (IC50) turned out to be 5.48 µM. Besides, the viability at 5 µM in assay [2] amounted to 89.4%. For the same molecule, the Activity was 7.31% in assay [3], 1.7% in assay [4] and 1.56% in assay [5].
